Measured values reported in ChEMBL document CHEMBL1275493, “Anti-human immunodeficiency virus type 1 activities of antimicrobial peptides derived from human and bovine cathelicidins” (Antimicrob Agents Chemother, 2008).
pEC50: −log10 of the molar value. Peptide text beside a SMILES is read from it.

Legend:
[1] = Therapeutic index, TC50 for Human immunodeficiency virus 1 3B infected human CEM-SS cells to EC50 for immunodeficiency virus 1 3B; assay type: cell-based; conditions: CEM-SS cells infected with HIV-1 3B, read-out: TI
[2] = system: Human immunodeficiency virus 1; test: Antiviral activity against Human immunodeficiency virus 1 3B infected in CEM-SS cells; assay type: functional, organism-based
[3] = system: CEM-SS; test: Cytotoxicity against Human immunodeficiency virus 1 3B infected human CEM-SS cells; assay type: functional; conditions: read-out: TC50 (the source's name)

| pEC50 [2] | Structure (SMILES) | selectivity ratio [1] | CC50 [3] [µM] |
| --- | --- | --- | --- |
| 6.46 | CC[C@H](C)[C@H](NC(=O)[C@H](CCCCN)NC(=O)[C@H](CCCCN)NC(=O)[C@H](Cc1ccccc1)NC(=O)[C@H](CC(C)C)NC(=O)[C@H](CCCCN)NC(=O)[C@H](CCCCN)NC(=O)[C@H](Cc1ccccc1)NC(=O)[C@H](CCCCN)NC(=O)[C@H](CCCCN)NC(=O)[C@H](CCCNC(=N)N)NC(=O)[C@H](Cc1ccccc1)NC(=O)[C@H](CCCNC(=N)N)NC(=O)[C@H](CCCCN)NC(=O)[C@H](Cc1ccccc1)NC(=O)[C@H](CCCNC(=N)N)NC(=O)CN)C(=O)N[C@@H](CO)C(=O)O (H-GRFKRFRKKFKKLFKKIS-OH) | 24.1 | 8.45 |
| 6.17 | CC[C@H](C)[C@H](NC(=O)[C@H](CCCCN)NC(=O)[C@H](CCCCN)NC(=O)[C@H](Cc1ccccc1)NC(=O)[C@H](CC(C)C)NC(=O)[C@H](CCCCN)NC(=O)[C@H](CCCCN)NC(=O)[C@H](NC(=O)[C@H](CCCCN)NC(=O)[C@H](CCCCN)NC(=O)[C@H](CCCNC(=N)N)NC(=O)[C@H](NC(=O)[C@H](CCCNC(=N)N)NC(=O)[C@H](CCCCN)NC(=O)[C@H](Cc1ccccc1)NC(=O)[C@H](CCCNC(=N)N)NC(=O)CN)c1ccccc1)c1ccccc1)C(=O)N[C@@H](CO)C(=O)O | 15 | 10.2 |
| 5.47 | CC[C@H](C)[C@H](NC(=O)[C@H](CCCNC(=N)N)NC(=O)[C@H](CCC(N)=O)NC(=O)[C@@H](NC(=O)[C@@H](NC(=O)[C@H](CCCNC(=N)N)NC(=O)[C@H](CCCCN)NC(=O)[C@@H](N)Cc1ccccc1)[C@@H](C)CC)C(C)C)C(=O)N[C@@H](CCCCN)C(=O)N[C@@H](CC(=O)O)C(=O)N[C@@H](Cc1ccccc1)C(=O)N[C@@H](CC(C)C)C(=O)N[C@@H](CCCNC(=N)N)C(=O)O (H-FKRIVQRIKDFLR-OH) | 3.1 | 10.4 |
| 5.49 | CC[C@H](C)[C@H](NC(=O)[C@H](CCCCN)NC(=O)[C@H](CCCCN)NC(=O)[C@H](Cc1ccccc1)NC(=O)[C@H](CC(C)C)NC(=O)[C@H](CCCCN)NC(=O)[C@H](CCCCN)NC(=O)[C@H](Cc1ccccc1)NC(=O)[C@@H]1CCCN1C(=O)[C@H](CCCCN)NC(=O)[C@H](CCCNC(=N)N)NC(=O)[C@H](Cc1ccccc1)NC(=O)[C@H](CCCNC(=N)N)NC(=O)[C@H](CCCCN)NC(=O)[C@H](Cc1ccccc1)NC(=O)[C@H](CCCNC(=N)N)NC(=O)CN)C(=O)N[C@@H](CO)C(=O)O (H-GRFKRFRKPFKKLFKKIS-OH) | 5.9 | 18.9 |
| 5.97 | CC[C@H](C)[C@H](NC(=O)CN)C(=O)N[C@@H](CCCCN)C(=O)N[C@@H](CCC(=O)O)C(=O)N[C@@H](Cc1ccccc1)C(=O)N[C@@H](CCCCN)C(=O)N[C@@H](CCCNC(=N)N)C(=O)N[C@H](C(=O)N[C@H](C(=O)N[C@@H](CCC(N)=O)C(=O)N[C@@H](CCCNC(=N)N)C(=O)N[C@H](C(=O)N[C@@H](CCCCN)C(=O)N[C@@H](CC(=O)O)C(=O)N[C@@H](Cc1ccccc1)C(=O)N[C@@H](CC(C)C)C(=O)N[C@@H](CCCNC(=N)N)C(=O)N[C@@H](CC(N)=O)C(=O)N[C@@H](CC(C)C)C(=O)N[C@H](C(=O)O)C(C)C)[C@@H](C)CC)C(C)C)[C@@H](C)CC (H-GIKEFKRIVQRIKDFLRNLV-OH) | 21 | 22.7 |
| 6.01 | CC[C@H](C)[C@H](NC(=O)[C@H](CCCNC(=N)N)NC(=O)[C@H](CCC(N)=O)NC(=O)[C@@H](NC(=O)[C@@H](NC(=O)[C@H](CCCNC(=N)N)NC(=O)[C@H](CCCCN)NC(=O)[C@H](Cc1ccccc1)NC(=O)CN)[C@@H](C)CC)C(C)C)C(=O)N[C@@H](CCCCN)C(=O)N[C@@H](CC(=O)O)C(=O)N[C@@H](Cc1ccccc1)C(=O)N[C@@H](CC(C)C)C(=O)N[C@@H](CCCNC(=N)N)C(=O)N[C@@H](CC(N)=O)C(=O)N[C@@H](CC(C)C)C(=O)N[C@H](C(=O)O)C(C)C | 9.1 | 8.9 |
| 6.04 | CC[C@H](C)[C@H](NC(=O)CN)C(=O)N[C@@H](CCCCN)C(=O)N[C@@H](CCC(N)=O)C(=O)N[C@@H](Cc1ccccc1)C(=O)N[C@@H](CCCCN)C(=O)N[C@@H](CCCNC(=N)N)C(=O)N[C@H](C(=O)N[C@H](C(=O)N[C@@H](CCC(N)=O)C(=O)N[C@@H](CCCNC(=N)N)C(=O)N[C@H](C(=O)N[C@@H](CCCCN)C(=O)N[C@@H](CC(=O)O)C(=O)N[C@@H](Cc1ccccc1)C(=O)N[C@@H](CC(C)C)C(=O)N[C@@H](CCCNC(=N)N)C(=O)N[C@@H](CC(N)=O)C(=O)N[C@@H](CC(C)C)C(=O)N[C@H](C(=O)O)C(C)C)[C@@H](C)CC)C(C)C)[C@@H](C)CC (H-GIKQFKRIVQRIKDFLRNLV-OH) | 15.1 | – |
| 4.97 | CC[C@H](C)[C@H](NC(=O)[C@H](CCCCN)NC(=O)[C@H](CCC(=O)O)NC(=O)[C@H](CCCCN)NC(=O)[C@@H](N)CO)C(=O)NCC(=O)N[C@@H](CCCCN)C(=O)N[C@@H](CCC(=O)O)C(=O)N[C@@H](Cc1ccccc1)C(=O)N[C@@H](CCCCN)C(=O)N[C@@H](CCCNC(=N)N)C(=O)N[C@H](C(=O)N[C@H](C(=O)N[C@@H](CCC(N)=O)C(=O)N[C@@H](CCCNC(=N)N)C(=O)N[C@H](C(=O)N[C@@H](CCCCN)C(=O)N[C@@H](CC(=O)O)C(=O)N[C@@H](Cc1ccccc1)C(=O)N[C@@H](CC(C)C)C(=O)N[C@@H](CCCNC(=N)N)C(=O)O)[C@@H](C)CC)C(C)C)[C@@H](C)CC (H-SKEKIGKEFKRIVQRIKDFLR-OH) | 2.08 | 22.5 |
